Measured values as given in the SangsterLogP compilation.

Compound | logP
CSCC[C@H](N)C(=O)O | -1.87
Nc1nc2c(ncn2COCCO)c(=O)[nH]1 | -1.56
FCF | 0.2
Oc1ccc(-c2ccccc2)cc1 | 3.2
O=C(O)c1cccc(Br)c1 | 2.87
CNC1(c2ccccc2Cl)CCCCC1=O (centres undefined) | 2.18
CN(C)CC/C=C1\c2ccccc2Sc2ccc(Cl)cc21 | 5.18
Cc1ccc2cc(C)c(C)cc2c1 | 4.73
O=[N+]([O-])c1cc2ccccc2[n+]([O-])c1 | 0.56
CN1C(=O)CC(=O)N(c2ccccc2)c2cc(Cl)ccc21 | 2.12
OCCBr | 0.23
O=C1NC(=O)C(c2ccccc2)(c2ccccc2)N1 | 2.47
NS(=O)(=O)c1ccccc1Cl | 0.74
Nc1ncnc2c1ncn2[C@H]1C[C@H](O)[C@@H](CO)O1 | -0.55
O=[N+]([O-])c1ccc(Cl)cc1 | 2.39
CCCSc1nnc(C(C)C)c(=O)n1N | 2.12
NC(=O)c1ncccc1O | 0.65
CC(=O)OC1C(Cl)C(Cl)C(Cl)C(Cl)C1Cl (centres undefined) | 3.4
CC(C)NC(=O)C=Cc1ccc([N+](=O)[O-])o1 | 1.34
Nc1cc(N2CCCCC2)nc(N)[n+]1[O-] | 1.24
CC(=O)N(C)c1ccccc1 | 1.12
COc1ccccc1C(=O)O | 1.59
N#Cc1ccccn1 | 0.45
O=C(O)c1ccc(F)cc1 | 2.07
Nc1ccccc1 | 0.9
COc1cc(C(=O)NN)ccn1 | -0.1

Compound | logP
CC(=O)Nc1ccccc1 | 1.16
NCCc1c[nH]cn1 | -0.7
CCCCCC1Nc2cc(C(F)(F)F)c(S(N)(=O)=O)cc2S(=O)(=O)N1 (centres undefined) | 2.66
O=[N+]([O-])c1cccc(Cl)c1 | 2.46
Cc1cc2ccccc2n1C | 2.82
Oc1cccc(F)c1 | 1.93
OCC=Cc1ccccc1 | 1.95
Nc1ccccc1C(=O)O | 1.21
CNC(=O)Oc1cccc(C)c1 | 1.7
S=C1NCCN1 | -0.66
Cc1cccc(C)c1O | 2.36
O=C1C=CC(=NO)C=C1 | 1.08
O=C(c1ccccc1)c1ccncc1 | 1.98
O=[N+]([O-])c1cc[n+]([O-])c2c([N+](=O)[O-])cccc12 | 0.76
CCCCN | 0.97
C[C@H](CS)C(=O)N1CCC[C@H]1C(=O)O | 0.34
O=c1cn[nH]c(=O)[nH]1 | -0.59
c1ccc(N2CCCCC2)cc1 | 2.98
CNC(=O)c1ccccc1 | 0.86
Clc1ccccc1-c1ccccc1 | 4.53
NS(=O)(=O)c1ccccc1 | 0.31
Nc1ccc(Oc2ccccc2)cc1 | 2.96
O=C(O)c1ccc([N+](=O)[O-])cc1 | 1.89
COc1ccc(C(=O)O)cc1 | 1.96
Cc1cn([C@H]2C[C@H](O)[C@@H](CO)O2)c(=O)[nH]c1=S | -0.07
CC(=O)C(C#N)=NNc1ccccc1Cl | 4

Compound | logP
O=[N+]([O-])c1ccc2ccc[n+]([O-])c2c1 | 0.36
Cn1cnc([N+](=O)[O-])c1Sc1ncnc2nc[nH]c12 | 0.1
CCc1ccccc1O | 2.47
c1ccc(-c2ccncc2)cc1 | 2.59
CCC(C)c1ccccc1OC(=O)NC (centres undefined) | 2.78
CC(=O)Nc1ccccn1 | 0.61
COc1ccc(OC)c(CC(C)N)c1 (centres undefined) | 1.72
Cc1ccc2cccc(C)c2c1 | 4.44
NCCCCc1ccccc1 | 2.4
O=C(O)COc1ccccc1Cl | 1.86
CC(=O)c1ccc([N+](=O)[O-])cc1 | 1.53
N#CCc1ccccc1 | 1.56
CC[C@@H]1C(=O)OC[C@@H]1Cc1cncn1C | 0.12
O=C1CC(=O)NC(=O)N1 | -1.47
O=C(CCCN1CCC(O)(c2ccc(Cl)cc2)CC1)c1ccc(F)cc1 | 3.36
COc1ccc(CC(=O)O)cc1 | 1.42
CN(C)C(=O)Nc1ccccc1 | 0.98
CNS(=O)(=O)c1ccc(N)cc1 | -0.01
O=C(O)COc1ccccc1Br | 2.04
CC(C)NCC(O)c1ccc(NS(C)(=O)=O)cc1 (centres undefined) | 0.24
CN1CCc2cccc3c2C1Cc1ccc(O)c(O)c1-3 (centres undefined) | 2.3
NCCc1ccc(O)c(O)c1 | -0.98
COc1ccc2c(c1)N(CCCN(C)C)c1ccccc1S2 | 4.9
NCCc1c[nH]c2ccccc12 | 1.55
COC(=O)C(C#N)=NNc1ccccc1 | 2.59
CNC(=O)Oc1cc(C)ccc1C(C)C | 3.11

Compound | logP
Cc1ccnc(N)c1 | 0.56
Cc1cccnc1 | 1.2
COC | 0.1
COc1cccc(/C=C/[N+](=O)[O-])c1 | 2.37
Cc1ncc(CO)c(CO)c1O | -0.77
COC(=O)C(C#N)=NNc1cccc(C(F)(F)F)c1 | 3.78
Cc1cc(O)c(C(C)(C)C)cc1CC(N)=O | 2.67
Nc1nc(O)c2ncn([C@H]3CC[C@@H](CO)O3)c2n1 | -1.01
Cc1cnccn1 | 0.21
Clc1cccc(Cl)c1 | 3.53
Nc1cccc([N+](=O)[O-])c1 | 1.37
O=C(O)COc1ccc(Cl)cc1 | 2.25
CC(Oc1ccccc1)C(=O)NC1C(=O)N2C1SC(C)(C)C2C(=O)O (centres undefined) | 2.2
c1ccc(Nc2ccccc2)cc1 | 3.5
Cc1cccc2c(C)cccc12 | 4.38
CCOC(=O)c1ccc(O)cc1 | 2.47
C(=C\c1ccccc1)/c1ccccc1 | 4.81
CC=Cc1ccccc1 | 3.35
NC(=O)CCCc1cccnc1 | -0.08
Cc1ccccc1C | 3.12
Clc1ccccn1 | 1.22
CCCC[N+](=O)[O-] | 1.47
CCCCCC(C)=O | 1.98
CC(=O)C(C#N)=NNc1cc(C(F)(F)F)ccc1Cl | 5.08
CCOC(=O)C(C#N)=NNc1cc(Cl)cc(Cl)c1 | 3.82
c1ccc2cc3c(ccc4ccccc43)cc2c1 | 5.76

Compound | logP
C[C@]12CCC(=O)C=C1CC[C@@H]1[C@@H]2[C@@H](O)C[C@]2(C=O)[C@@H](C(=O)CO)CC[C@@H]12 | 1.08
O=C(O)c1cccc(F)c1 | 2.15
CCN(CC)CCNC(=O)c1ccc(N)cc1 | 0.88
N#Cc1ccc(/C=C/NC=O)cc1 | 1.62
NC(=O)/C=C/c1ccccc1 | 1.43
Cc1ccc(C(C)C)cc1 | 4.1
O=C(NC(CO)C(O)c1ccc([N+](=O)[O-])cc1)C(F)F (centres undefined) | 0.42
O=[N+]([O-])c1cccc2c1c([N+](=O)[O-])cc[n+]2[O-] | 0.95
c1ncc2[nH]cnc2n1 | -0.37
COc1ccccc1O | 1.32
CCN(CC)CC | 1.45
COc1ccc2[nH]ccc2c1 | 2.06
CN | -0.57
CN(C)c1ccc(S(N)(=O)=O)cc1 | 0.76
OCc1ccc(O)cc1 | 0.25
CC1CC(C)C(=O)C(C(O)CC2CC(=O)NC(=O)C2)C1 (centres undefined) | 0.55
CC(=O)C(C#N)=NNc1ccc(Cl)c(Cl)c1 | 4.56
CN1C(=O)C(=O)c2ccccc21 | 0.58
O=C(O)c1cccc2ccccc12 | 3.1
NC(=O)CCCCc1ccccn1 | 0.38
OCc1cccc(O)c1 | 0.49
O=[N+]([O-])c1cccc(O)c1 | 2
O=C(O)Cc1ccc(O)cc1 | 0.75
Cc1cc(C)c(C)cc1C | 4
CCC(C)n1nnc2ccccc21 (centres undefined) | 2.31
CCCCN(CCCC)N=O | 2.63

Compound | logP
CCNC | 0.15
O=[N+]([O-])/C=C/c1ccoc1 | 1.41
O=C1CN=C(c2ccccc2)c2cc([N+](=O)[O-])ccc2N1 | 2.25
O=C(O)c1c(O)cccc1O | 2.2
CC(=O)C(C#N)=NNc1cc(Cl)cc(Cl)c1 | 4.68
O=Nc1ccc2ccccc2c1O | 2.46
COP(=O)(OC)OC=C(Cl)Cl | 1.47
O=c1ccn([C@H]2C[C@H](F)[C@@H](CO)O2)c(=O)[nH]1 | -0.49
N=c1ccn(O)c2ccccc12 | 0.05
c1ccc2c(c1)CCC2 | 3.18
CCC(C)=O | 0.29
Nc1ccc(S(=O)(=O)Nc2ncccn2)cc1 | -0.09
CCCCOc1ccc(CC(=O)NO)cc1 | 2.08
CCOc1ccccc1O | 1.68
CC(=O)Oc1cccc(O)c1 | 1.23
CC[C@H](C)N | 0.74
CCOC(=O)C(C#N)=NNc1cc(Cl)c(Cl)cc1Cl | 5.21
NC(=O)c1ccc(Cl)cc1 | 1.55
Cc1ccc(S(N)(=O)=O)cc1 | 0.82
c1ccc2[nH]cnc2c1 | 1.32
Oc1ccc(O)cc1 | 0.59
CC(C)(S)[C@@H](N)C(=O)O | -1.78
Nc1ccc(-c2ccc(N)cc2)cc1 | 1.34
CCc1cccc(OC(=O)NC)c1 | 2.2
Oc1cc(Cl)c(Cl)cc1Cl | 3.72
CCN(CC)CCOC(=O)c1ccc(N)cc1 | 2.14

Compound | logP
CCc1ccccc1Cl | 2.95
CCC1(CCC(C)C)C(=O)NC(=O)NC1=O | 2.07
CNC(=O)Oc1ccc2c(c1)[C@]1(C)CCN(C)[C@@H]1N2C | 1.58
O=[N+]([O-])c1cc[n+]([O-])c2ccccc12 | 1.09
CCOCCO | -0.32
O=C1c2ccccc2C(=O)C1c1ccccc1 | 2.9
O=C(O)COc1cccc(Br)c1 | 2.22
CNC(=O)Oc1cccc([N+](=O)[O-])c1 | 1.39
Nc1ccc(S(=O)(=O)c2ccc(N)cc2)cc1 | 0.97
Nc1ccc2cc3ccc(N)cc3nc2c1 | 1.83
Clc1cccc(-c2ccccc2)c1 | 4.58
CC/C(=C/c1ccccc1)[N+](=O)[O-] | 2.86
O=C(O)CCCCCCCC(=O)O | 1.57
NS(=O)(=O)c1ccc(Cl)c(Cl)c1 | 1.44
CCCNCC(C)C | 2.07
ClCCl | 1.25
Cc1ccnc2c(O)cccc12 | 2.41
C1CCCC1 | 3
CC(C)CO | 0.76
C1CNCCN1 | -1.5
O=C1OC(=O)c2ccccc21 | 1.6
OC(c1ccccc1)C1CC1 (centres undefined) | 1.95
C=CCN1CC[C@]23c4c5ccc(O)c4O[C@H]2[C@@H](O)C=C[C@H]3[C@H]1C5 | 1.86
